Test results published in patent US5869234A, “Method of identifying compounds which modulate herpesvirus infection” (President and Fellows of Harvard College, priority 1996, dated 1999).
Ends that are not written are not given here.

Legend:
viral DNA synthesis = conditions: cited from earlier work
[1] = molecular target: T1, protein kinase A type I catalytic subunit (Bos taurus, UniProt P00517); assay: In vitro phosphorylation of a synthetic peptide by PKA; assay type: biochemical, bovine; conditions: for Ratio**: ratio defined in footnote drawing 1
T1 construct: purchased Sigma Chem. Co; host or cells: bovine heart
Description: (§1) ii) In vitro phosphorylation of a synthetic peptide. A peptide containing a potential protein kinase A site in the serine-rich region of ICP4 (RRRRHGRWRPSASST, residues 165-179) (SEQ ID NO: 2 ) was synthesized on an Applied Biosystems model 430A automated peptide synthesizer and purified by HPLC. Amino acid analysis confirmed the authenticity of this peptide, termed ICP4tide. ICP4tide (100 μM), or Kemptide (LRRASLG, Sigma Inc.), a commercially available substrate for protein kinase A ([…]), was then incubated at 30° C. in a solution containing 24 mM MES (pH 7.0), […], 5.6 nM [^32 P]ATP (300-600 Ci/mmol). Each reaction was subsequently initiated by adding 80 U of protein kinase A type I catalytic subunit purified from bovine heart (Sigma Chem. Co., 1000U/0.016 mg protein) to a final volume of 52.5 μl. Following incubation for 4 minutes, 20 μl of the reaction was spotted onto P81 phosphocellulose strips, and phosphopeptides were quantitated after washing three times in […] of 75 mM phosphoric acid as previously described (Roskoski, R. Jr., Methods in Enzymology, 99:3-6 (1983)). For kinetic studies, the concentration of ICP4tide was varied as indicated. The ICP4tide was also phosphorylated in a manner similar to those described below for phosphorylation of purified ICP4 proteins with PKA except that synthetic peptide replaced the purified ICP4 and the ATP concentration was increased to 60 mM. Such phosphorylated peptides were resolved in a 27% SDS-polyacrylamide gel.
(§2) Accordingly, a peptide, named ICP4tide (RRRRHGRWRPSASST, residues 165-179) (SEQ ID NO: 2), corresponding to this potential site was synthesized and incubated in vitro with purified type I catalytic subunits of PKA and [γ-^32 P]ATP. Kemptide (LRRASLG) (SEQ ID NO: 5), a commercially available substrate for PKA, was used as a positive control.
(§3) To determine the Km values of these reactions, we incubated different concentrations of ICP4tide with [Y-^32 P]ATP and a fixed amount of PKA catalytic subunits (80 U each) for 4 min at 30° C. Varying amounts of ICP4tide were incubated with […] of PKA and 60 μM ATP, and the incorporation of ^32 P into ICP4tide was determined. From the Lineweaver-Burk representation of the data, the Km was determined as described (Michael, N., Spector, D., Mavromara-Nazos, P., Kristie, T. M. and Roizman, B., Science, 239:1531-1534 (1988)). […] Thus, the synthetic ICP4tide could be considered to be a good substrate for PKA in vitro.

[2] = cited from earlier work
[3] = tested on: CC(C)C[C@H](NC(=O)[C@H](CO)NC(=O)[C@H](C)NC(=O)[C@H](CCCNC(=N)N)NC(=O)[C@H](CCCNC(=N)N)NC(=O)[C@@H](N)CC(C)C)C(=O)NCC(=O)O; assay: In vitro phosphorylation of a synthetic peptide by PKA; assay type: biochemical, bovine; conditions: other: Lineweaver-Burk, PKA catalytic subunits, 4 min at 30° C., 60 μM ATP, pH 7.0
Description: as §1, §2, §3

ICP4 = assay: In vitro phosphorylation of purified ICP4 without added kinase; assay type: biochemical, HSV-1; conditions: 1 mM
Description: In vitro phosphorylation of purified ICP4 proteins with PKA or without added kinase. Approximately 20 ng of the ICP4 protein purified as described previously (Imbalzano, A. N., Shepard, A. A. and DeLuca, N. A., J. Virol., 64:2620-2631 (1990)) was added to a solution containing 10 mM Tris (pH 7.2), 10 mM MgCl2, 50 mM NaCl, 10 mM DTT and 20 μM (0.15 mCi) [γ-^32 P]ATP. The phosphorylation reaction was initiated by adding 60 U of protein kinase A type I catalytic subunit purified from bovine heart (Sigma Chem. Co., 1000 U/0.016 mg protein). Reaction mixtures were incubated at 30° C. for 30 min and stopped by addition of SDS-sample buffer. Equal portions of the reactions were analyzed by SDS-PAGE and transferred onto a nitrocellulose sheet for exposure to Kodak X-AR film and for staining with an ICP4-specific antibody. In some cases, the reaction mixtures were terminated by addition of 0.5 ml lysis buffer, and immunoprecipitation was conducted exactly as described above.
When an equivalent amount of d8-10 ICP4 protein was incubated, no labeled band was observed (Example 1; FIG. 5A, lane 3). The amount of phosphorylation in the absence of added enzyme was approximately one-tenth the level of phosphorylation in the presence of PKA. This phosphorylation in the absence of added enzyme may have resulted from an enzyme tightly bound to ICP4 or from an activity intrinsic to ICP4 itself. […]

Compound	effect on viral DNA synthesis (viral DNA synthesis)	Phosphorylation (cpm) ([1]; +PKA)	γ^32 P incorporated (%) ([1]; +PKA)	Ratio** ([1]; +PKA)	Phosphorylation (cpm) ([1]; -PKA)	γ^32 P incorporated (%) ([1]; -PKA)	other results
Nc1nc2c(ncn2COCCO)c(=O)[nH]1 [acyclovir]	inhibits viral DNA synthesis						
RRRRHGRWRPSASST [ICP4tide]		182104	6.2	26.2	6946	0.24	Km ([1]; Lineweaver-Burk, PKA catalytic subunits, 4 min at 30° C., 60 μM ATP): 39 µM; phosphorylation by PKA, in words ([1]; compared with Kemptide): strongly phosphorylated
LRRASLG [Kemptide, LRRASLG]		768687	26.1	88.5	8682	0.3	
Nc1ncnc2c1ncn2[C@@H]1O[C@H](CO)[C@@H](O)[C@@H]1O [vidarabine]	inhibits viral DNA synthesis						properties in some experimental models [2]: teratogenic, mutagenic and carcinogenic properties
protein kinase A type I catalytic subunit (Bos taurus)							Km [3]: 9 µM
[Mn+2] [Mn^+2]							effect on phosphorylation of ICP4 in the absence of added kinase (ICP4): inhibited
